We go through 45 compounds from US10898504B2, “Substituted nucleoside analogues for use as PRMT5 inhibitors” (Janssen Pharmaceutica NV, priority 2016, dated 2021).

“And” between values parts separate entries of the source, which are not always exact repeats. Equal entries are not always repeated.

The target in one assay is T1, PRMT5-MEP50 enzyme (Homo sapiens, UniProt O14744).
T1 construct: One virus expresses full length human PRMT5 with Flag-tag at N-terminus
In words: In vitro assay (Assay 1): PRMT5-MEP50 high throughput mass spectrometer assay, inhibition of SAH formation. The note with it: individual measurements shown, read-out: pIC50 Assay 1 (converted). The assay is classed as biochemical. The gist of the method:
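Flag-PRMT5/His-MEP50 full-length human complex (Sf9-expressed), 10 nM, with 1 μM SAM and 0.3 μM histone H2A in 20 mM Tris-HCl pH 8.5, 50 mM NaCl, 5 mM MgCl2, 1 mM DTT; 60 min at 30 °C, quenched with 1% formic acid. SAH quantified by RapidFire MS; IC50 from 11-point 1:2 series fitted to four-parameter Hill equation.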

The test system of a further assay is A549 cells. The experiment in a line: PD assay (Assay 2): inhibition of nuclear symmetric Arginine dimethylation (SYM10 immunohistochemistry) in A549 cells. The format is cell-based. The note with it: individual measurements shown; for IC50: Homo sapiens, A549, PD assay in A549 cells, read-out: pIC50 Assay 2 (converted); for pIC50 Assay 2: PD assay in A549 cells. The gist of the method:
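A549 cells dosed with a nine-point series (0.2% DMSO) for 48 h at 37° C, then fixed and immunostained with SYM10 anti-symmetric-dimethylarginine antibody, plus Hoechst and CellMask counterstains for high-content imaging. Nuclear signal normalized between DMSO and 10 μM reference-compound controls to derive IC50/pIC50.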

T1 sequence (O14744 whole entry): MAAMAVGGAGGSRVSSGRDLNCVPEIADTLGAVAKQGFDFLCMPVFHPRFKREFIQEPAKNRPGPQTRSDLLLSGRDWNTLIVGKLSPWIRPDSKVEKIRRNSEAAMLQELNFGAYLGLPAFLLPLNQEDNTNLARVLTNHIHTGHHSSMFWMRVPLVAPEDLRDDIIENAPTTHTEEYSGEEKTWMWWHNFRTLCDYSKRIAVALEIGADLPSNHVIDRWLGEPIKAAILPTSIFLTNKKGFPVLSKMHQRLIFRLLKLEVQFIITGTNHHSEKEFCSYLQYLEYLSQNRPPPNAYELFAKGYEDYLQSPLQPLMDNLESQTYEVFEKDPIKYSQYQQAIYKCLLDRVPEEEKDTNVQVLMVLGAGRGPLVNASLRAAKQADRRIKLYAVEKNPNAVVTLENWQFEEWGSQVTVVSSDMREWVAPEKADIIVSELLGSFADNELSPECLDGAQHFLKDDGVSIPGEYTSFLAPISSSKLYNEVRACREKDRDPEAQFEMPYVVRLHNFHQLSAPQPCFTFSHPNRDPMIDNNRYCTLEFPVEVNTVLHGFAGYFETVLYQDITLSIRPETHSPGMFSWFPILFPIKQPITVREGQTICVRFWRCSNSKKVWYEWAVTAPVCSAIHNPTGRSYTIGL
T1 sequence (Q9BQA1 whole entry partner): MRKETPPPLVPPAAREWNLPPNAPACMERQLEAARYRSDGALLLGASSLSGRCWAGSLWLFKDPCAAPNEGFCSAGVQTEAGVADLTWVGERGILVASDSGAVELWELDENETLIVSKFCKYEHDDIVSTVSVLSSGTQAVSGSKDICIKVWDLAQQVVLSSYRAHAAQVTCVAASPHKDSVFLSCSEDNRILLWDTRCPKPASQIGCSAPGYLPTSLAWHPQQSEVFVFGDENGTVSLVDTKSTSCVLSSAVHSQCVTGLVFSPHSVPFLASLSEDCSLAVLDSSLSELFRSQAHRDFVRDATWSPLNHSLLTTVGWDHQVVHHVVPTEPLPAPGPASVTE

Take `Nc1nccc2c1ccn2[C@@H]1O[C@H](CN2CCCC23CCNCC3)[C@@H](O)[C@H]1O` [Compound 61]: the IC50 was 129 nM at PRMT5-MEP50 enzyme and over 10000 nM with A549 cells.

For `CCNc1ncnc2c1ccn2[C@@H]1O[C@H](CN2CCCC23CCN(C)CC3)[C@@H](O)[C@H]1O` [Compound 205], the IC50 is 1620 nM on PRMT5-MEP50 enzyme and 7080 nM in the assay on A549 cells.

As to `Nc1ncnc2c1ccn2[C@@H]1O[C@H](CN2CCOC3(C2)CN(Cc2ccc(Cl)cc2)C3)[C@@H](O)[C@H]1O` [Compound 93], the IC50 at PRMT5-MEP50 enzyme was 3020 nM; in the assay with A549 cells it was about 2450 nM.

As to `Nc1ncnn2c([C@@H]3O[C@H](CN4CCC45CCNCC5)[C@@H](O)[C@H]3O)ccc12` [Compound 165], the values for the IC50 on PRMT5-MEP50 enzyme and with A549 cells were 871 nM and over 10000 nM, respectively.

`CC(C)C(=O)O[C@@H]1[C@H](OC(=O)C(C)C)[C@@H](CN2CCCC23CCN(C)CC3)O[C@H]1c1ccc2c(N)ncnn12` [Compound 104]: the IC50 at PRMT5-MEP50 enzyme is over 10000 nM; with A549 cells, 1580 nM.

`C[C@@]1(O)[C@H](O)[C@@H](CN2CCCC23CCNCC3)O[C@H]1n1cnc2c(N)ncnc21` [Compound 27]: the values for the IC50 on PRMT5-MEP50 enzyme and with A549 cells were 1350 nM and over 10000 nM, respectively.

Take `Nc1ncnn2c([C@@H]3O[C@H](CN4CC(F)(F)CC45CCN(CC(F)(F)F)CC5)[C@@H](O)[C@H]3O)ccc12` [Compound 145]: the IC50 at PRMT5-MEP50 enzyme and with A549 cells was over 10000 nM in each case.

In the case of `CC(C)C(=O)O[C@@H]1[C@H](OC(=O)C(C)C)[C@@H](CN2CC(F)(F)CC23CCN(C)CC3)O[C@H]1n1ccc2c(N)ncnc21` [Compound 103], the IC50 at PRMT5-MEP50 enzyme was over 10000 nM. Moreover, the “pIC50 Assay 2” value with A549 cells came out at 6.46.

`CN1CCCCC12CN(C[C@H]1O[C@@H](n3cnc4c(N)ncnc43)[C@H](O)[C@@H]1O)C2` [Compound 10]: the IC50 at PRMT5-MEP50 enzyme is 38900 nM and 24500 nM; in the assay with A549 cells, over 10000 nM.

As for `Nc1ncnc2c1ccn2[C@@H]1O[C@H](CN2CCCC23CCCNC3)[C@@H](O)[C@H]1O` (single isomer, unassigned) [Compound 120], the IC50 on PRMT5-MEP50 enzyme was 2290 nM. Besides, the “pIC50 Assay 2” value in the assay with A549 cells is given as under 5.

Take `N#CCCN1CCC2(CCCN2C[C@H]2O[C@@H](n3ccc4c(N)ncnc43)[C@H](O)[C@@H]2O)CC1` [Compound 193]: the results for the IC50 at PRMT5-MEP50 enzyme and in the assay on A549 cells were 186 nM and 468 nM, respectively.

Regarding `NCC1CCN(C[C@H]2O[C@@H](n3ccc4c(N)ncnc43)[C@H](O)[C@@H]2O)C1` (some centres unmarked) [Compound 56], the IC50 on PRMT5-MEP50 enzyme was 186 nM; with A549 cells, about 10000 nM.

With `Cc1nc(N)c2ccn([C@@H]3O[C@H](CN4CCCC45CCNCC5)[C@@H](O)[C@H]3O)c2n1` [Compound 28], the IC50 at PRMT5-MEP50 enzyme was 26.3 nM; in the assay with A549 cells it was 1150 nM.

Take `Nc1ncnc2c1ccn2[C@@H]1C[C@H](CN2CC(F)(F)CC23CCNCC3)[C@@H](O)[C@H]1O` [Compound 126]: the IC50 on PRMT5-MEP50 enzyme is 17.4 nM; in the assay on A549 cells, 44.7 nM.

Consider `Nc1ncnc2c1ncn2[C@@H]1O[C@H](CN2CC3(CCCN3)C2)[C@@H](O)[C@H]1O` [Compound 83], for which the IC50 at PRMT5-MEP50 enzyme is 44700 nM; in the assay with A549 cells it was over 10000 nM.

On to `CC(C)C(=O)O[C@@H]1[C@H](OC(=O)C(C)C)[C@@H](CN2CCCC23CCN(C)CC3)O[C@H]1n1ccc2c(N)ncnc21` [Compound 95b], for which the IC50 on PRMT5-MEP50 enzyme was over 100000 nM. For the same compound, the “pIC50 Assay 2” value in the assay on A549 cells was ~7.34 and 7.05.

On to `Nc1ncnc2c1ccn2[C@@H]1O[C@H](CN2CCCC23CCCNCC3)[C@@H](O)[C@H]1O` (single isomer, unassigned) [Compound 117], for which the IC50 was 33.9 nM on PRMT5-MEP50 enzyme and 501 nM in the assay on A549 cells.

Regarding `Nc1ncnc2c1ccn2[C@@H]1O[C@H](CN2CC(F)(F)CC23CCN(CCC2CC2)CC3)[C@@H](O)[C@H]1O` [Compound 185], the IC50 was 25.1 nM at PRMT5-MEP50 enzyme and 589 nM in the assay on A549 cells.

Take `Nc1ncnc2c1ncn2[C@@H]1O[C@H](CN2CCCC3(CNC3)C2)[C@@H](O)[C@H]1O` [Compound 82]: the IC50 is 126 nM at PRMT5-MEP50 enzyme and 2340 nM with A549 cells.

Regarding `CC(C)C(=O)O[C@@H]1[C@H](OC(=O)C(C)C)[C@@H](CN2CCCC23CCN(C)CC3)O[C@H]1n1ccc2c(N)ncnc21` [Compound 95a], at PRMT5-MEP50 enzyme, the IC50 is over 10000 nM. Further, the “pIC50 Assay 2” value with A549 cells is 6.94 and 6.95.

For `N#CCN1CCC2(CCCN2C[C@H]2O[C@@H](c3ccc4c(N)ncnn34)[C@H](O)[C@@H]2O)CC1` [Compound 140], the figures for the IC50 on PRMT5-MEP50 enzyme and in the assay on A549 cells were 295 nM and about 3020 nM, respectively.

On to `CN1CC2(CCCN(C[C@H]3O[C@@H](n4ccc5c(N)ncnc54)[C@H](O)[C@@H]3O)C2)C1` [Compound 74], for which the IC50 at PRMT5-MEP50 enzyme was 37.2 nM and 35.5 nM; with A549 cells, 372 nM. Further, in the assay with A549 cells, the “pIC50 Assay 2” value was about 6.51.

On to `NCC[C@H]1CCCN1C[C@H]1O[C@@H](n2cnc3c(N)ncnc32)[C@H](O)[C@@H]1O` [Compound 58], for which the IC50 was 724 nM at PRMT5-MEP50 enzyme and about 6920 nM in the assay with A549 cells.

Turning to `Nc1ncnc2c1ccn2[C@@H]1O[C@H](CN2CCCC23CCN(Cc2ccoc2)CC3)[C@@H](O)[C@H]1O` [Compound 175], the values for the IC50 on PRMT5-MEP50 enzyme and with A549 cells were 589 nM and 1410 nM, respectively.

`CN1CC2(CCCN2C[C@H]2O[C@@H](n3cnc4c(N)ncnc43)[C@H](O)[C@@H]2O)C1` [Compound 2]: the IC50 was 776 nM at PRMT5-MEP50 enzyme and over 10000 nM in the assay with A549 cells.

Turning to `CN1CCC2(CCC=C2C[C@H]2C[C@@H](n3ccc4c(N)ncnc43)[C@H](O)[C@@H]2O)CC1` [Compound 206], the values for the IC50 at PRMT5-MEP50 enzyme and in the assay with A549 cells were 5.13 nM and 64.6 nM, respectively.

As to `Nc1ncnc2c1ccn2[C@@H]1O[C@H](CN2CCCC23CCN(C2CC2)CC3)[C@@H](O)[C@H]1O` [Compound 174], the IC50 was 501 nM at PRMT5-MEP50 enzyme and about 2290 nM with A549 cells.

Regarding `O[C@@H]1[C@H](O)[C@@H](CN2CC(F)(F)CC23CCN(C2CC2)CC3)O[C@H]1n1ccc2c(Cl)ncnc21` [Compound 67], the IC50 on PRMT5-MEP50 enzyme is 1860 nM; in the assay with A549 cells it was about 6170 nM.

Consider `NC[C@@H]1COCCN1C[C@H]1O[C@@H](c2ccc3c(N)ncnn23)[C@H](O)[C@@H]1O` [Compound 132], for which the IC50 at PRMT5-MEP50 enzyme was 1550 nM; with A549 cells, over 20000 nM.

In the case of `Nc1ncnn2c([C@@H]3O[C@H](CN4CCC(F)(F)C[C@H]4CN4CCCC4)[C@@H](O)[C@H]3O)ccc12` [Compound 159], the IC50 at PRMT5-MEP50 enzyme was over 10000 nM; with A549 cells, over 20000 nM.

Regarding `Nc1ncnc2c1ccn2[C@@H]1C[C@H](/C=C2\CCCC23CCNCC3)[C@@H](O)[C@H]1O` [Compound 167], the IC50 at PRMT5-MEP50 enzyme was 3.16 nM and 1.58 nM. Besides, in the assay with A549 cells, the IC50 is 30.2 nM and the “pIC50 Assay 2” value is listed as 7.68.

`Nc1ncnc2c1ccn2[C@@H]1O[C@H](CN2CCOC3(CNC3)C2)[C@@H](O)[C@H]1O` [Compound 31]: the IC50 was 39.8 nM at PRMT5-MEP50 enzyme and about 1450 nM in the assay on A549 cells.

As for `Nc1ncnc2c1ccn2[C@@H]1O[C@H](CN2C(C(F)(F)F)CCC23CCNCC3)[C@@H](O)[C@H]1O` (single isomer, unassigned) [Compound 116], the IC50 on PRMT5-MEP50 enzyme is 151 nM. The “pIC50 Assay 2” value with A549 cells was determined as 5.53.

Regarding `Nc1ncnc2c1ccn2[C@@H]1O[C@H](CN2CCCC3(CNCCO3)C2)[C@@H](O)[C@H]1O` (single isomer, unassigned) [Compound 33], the IC50 was 240 nM at PRMT5-MEP50 enzyme and 12000 nM in the assay with A549 cells.

`NCC[C@@H]1CC(F)(F)CCN1C[C@H]1O[C@@H](c2ccc3c(N)ncnn23)[C@H](O)[C@@H]1O` [Compound 128]: the IC50 at PRMT5-MEP50 enzyme is 204 nM; in the assay with A549 cells it was over 10000 nM.

As for `Nc1ncnc2c1ccn2[C@@H]1O[C@H](CN2CCCC23CCN(Cc2cccnc2)CC3)[C@@H](O)[C@H]1O` [Compound 172], the IC50 was 309 nM at PRMT5-MEP50 enzyme and about 912 nM with A549 cells.

For `CN1CCC2(CC1)CC(F)(F)CN2C[C@H]1O[C@@H](n2ccc3c(N)ncnc32)[C@H](O)[C@@H]1O` [Compound 181], the IC50 is 19.5 nM on PRMT5-MEP50 enzyme and 66.1 nM in the assay on A549 cells.

On to `Nc1ncnc2c1ncn2[C@@H]1O[C@H](CN2CCC3(CNC3)C2)[C@@H](O)[C@H]1O` [Compound 86], for which the IC50 was 417 nM at PRMT5-MEP50 enzyme and over 10000 nM with A549 cells.

With `Nc1ncnc2c1ccn2[C@@H]1O[C@H](CN2CCOCC23CCNCC3)[C@@H](O)[C@H]1O` [Compound 108], the IC50 is 25.7 nM on PRMT5-MEP50 enzyme and 204 nM in the assay on A549 cells.

For the compound `CN1CCC2(CCCN2CC2C[C@@H](n3ccc4c(N)ncnc43)[C@H](O)[C@@H]2O)CC1` (some centres unmarked) [Compound 125], the IC50 at PRMT5-MEP50 enzyme was 148 nM; with A549 cells it was about 871 nM.

`CC(C)C(=O)O[C@@H]1[C@H](OC(=O)C(C)C)[C@@H](CN2CC(F)(F)CC23CCNCC3)O[C@H]1c1ccc2c(N)ncnn12` [Compound 107]: the IC50 at PRMT5-MEP50 enzyme was over 10000 nM; with A549 cells, 126 nM.

Turning to `CN1CCC2(CC1)CC(F)(F)CN2C[C@H]1O[C@@H](c2ccc3c(N)ncnn23)[C@H](O)[C@@H]1O` [Compound 147], the IC50 at PRMT5-MEP50 enzyme is 186 nM; with A549 cells it was 603 nM.

For `CN1CCC2(CC1)CCN(C[C@H]1O[C@@H](n3cnc4c(N)ncnc43)[C@H](O)[C@@H]1O)C2` [Compound 16], the IC50 at PRMT5-MEP50 enzyme is 22400 nM; in the assay with A549 cells, over 10000 nM.

For the compound `Nc1ncnc2c1ccn2[C@@H]1O[C@H](CN2CCCC3(CNCCO3)C2)[C@@H](O)[C@H]1O` (single isomer, unassigned) [Compound 34], on PRMT5-MEP50 enzyme, the IC50 was 3980 nM. In addition, the “pIC50 Assay 2” value with A549 cells is recorded as under 4.7.

As for `NC[C@@H]1CC(F)(F)CCN1C[C@H]1O[C@@H](c2ccc3c(N)ncnn23)[C@H](O)[C@@H]1O` [Compound 160], the IC50 on PRMT5-MEP50 enzyme was 2690 nM; with A549 cells, over 20000 nM.
